Experimental data as given in paper PMC5049494, “Nitrotriazole-based acetamides and propanamides with broad spectrum antitrypanosomal activity” (European Journal of Medicinal Chemistry, 2016).

System: L6 cells (rat skeletal myoblasts)
Test: not given
Parameters: method as in PMID 26344593, PMID 25580906
Conditions: previously evaluated compounds (orange, designated a); read-out: Cyt. L6 IC50; cited from earlier work

| Structure (SMILES) | IC50 |
| --- | --- |
| N#Cc1ccc(-c2ccc(NC(=O)Cn3cnc([N+](=O)[O-])n3)cc2)cc1 [Compound 9a] | 165 µM |

System: L. donovani axenic, strain MHOM-ET-67/L82 amastigotes
Test: In vitro activity against L. donovani
Format: cell-based
Conditions: IC50 in L6 cells/IC50 in L. donovani

| Structure (SMILES) | SI (L.d.) |
| --- | --- |
| O=C(Cn1cnc([N+](=O)[O-])n1)Nc1cc(-c2ccc(F)cc2)on1 [Compound 13, N-(5-(4-fluorophenyl)isoxazol-3-yl)-2-(3-nitro-1H-1,2,4-triazol-1-yl)acetamide] | 20.5 |

Same assay, conditions: L. donovani

| Structure (SMILES) | antileishmanial activity class (TDR criteria) |
| --- | --- |
| O=C(Cn1cnc([N+](=O)[O-])n1)Nc1cc(-c2ccc(F)cc2)on1 [Compound 13, N-(5-(4-fluorophenyl)isoxazol-3-yl)-2-(3-nitro-1H-1,2,4-triazol-1-yl)acetamide] | inactive |

Same assay, conditions: Leishmania donovani; L. donovani axenic amastigotes MHOM-ET-67/L82; means of 2 to 3 measurements, SD < 5%; read-out: L.d. IC50

| Structure (SMILES) | IC50 |
| --- | --- |
| O=C(Cn1cnc([N+](=O)[O-])n1)Nc1cc(-c2ccc(F)cc2)on1 [Compound 13, N-(5-(4-fluorophenyl)isoxazol-3-yl)-2-(3-nitro-1H-1,2,4-triazol-1-yl)acetamide] | 9.79 µM |

System: bloodstream form T.b. brucei wild type
Test: T. brucei antiproliferating assay, wild type
Format: cell-based
Conditions: Trypanosoma brucei, read-out: IC50 value T.b. brucei Wild type, bloodstream form; means from 4 experiments ± SD
Method: The BSF of T. brucei parasites were seeded at 1 × 10^3 mL^−1 in 200 μL of growth medium containing different concentrations of nitroheterocycle. Where appropriate, induction of the TbNTR was carried out by adding tetracycline (1 μg/mL). After incubation for 3 days at 37 °C, 20 μL of Alamar blue was added to each well and the plates incubated for a further 16 h. The cell density of each culture was determined as described before and the IC50 established.

| Structure (SMILES) | IC50 |
| --- | --- |
| O=C(Cn1cnc([N+](=O)[O-])n1)Nc1cc(-c2ccc(F)cc2)on1 [Compound 13, N-(5-(4-fluorophenyl)isoxazol-3-yl)-2-(3-nitro-1H-1,2,4-triazol-1-yl)acetamide] | 26.6 ± 6.02 µM |

System: not given
Test: not given
Conditions: not given

| Structure (SMILES) | melting point |
| --- | --- |
| O=C(Cn1cnc([N+](=O)[O-])n1)Nc1cc(-c2ccc(F)cc2)on1 [Compound 13, N-(5-(4-fluorophenyl)isoxazol-3-yl)-2-(3-nitro-1H-1,2,4-triazol-1-yl)acetamide] | > 220 °C |

System: T.b. rhodesiense, strain STIB 900 trypomastigotes
Test: not given
Parameters: method as in PMID 26344593, PMID 25580906
Conditions: T. b. rhodesiense; previously evaluated acetamides; cited from earlier work

| Structure (SMILES) | anti-HAT activity class (TDR criteria) |
| --- | --- |
| N#Cc1ccc(-c2ccc(NC(=O)Cn3cnc([N+](=O)[O-])n3)cc2)cc1 [Compound 9a] | active |

Same assay, conditions: previously evaluated compounds (orange, designated a); read-out: T.b.r. IC50; cited from earlier work

| Structure (SMILES) | IC50 |
| --- | --- |
| N#Cc1ccc(-c2ccc(NC(=O)Cn3cnc([N+](=O)[O-])n3)cc2)cc1 [Compound 9a] | 0.336 µM |

System: T.b. rhodesiense, strain STIB 900 trypomastigotes
Test: In vitro activity against T. b. rhodesiense
Format: cell-based
Conditions: IC50 in L6 cells/IC50 in T.b. rhodesiense
Method: (§1) Compounds in Table 1 were screened for anti-parasitic activity against three trypanosomatids: T. cruzi, T. b. rhodesiense and Leishmania donovani and compared with previously made analogs shown in orange and designated with a. […] In addition, compounds were tested for toxicity in L6 rat skeletal myoblasts, the host cells for T. cruzi amastigotes, in order to calculate a selectivity index for each parasite [SI = IC50L6/IC50parasite] (Table 1). The TDR (Special Programme for Research and Training in Tropical Diseases, World Health Organization) criteria were adopted to interpret antiparasitic activity and selectivity.
(§2) In vitro activity against T. cruzi, T. b. rhodesiense, L. donovani and cytotoxicity assessment using L6 cells (rat skeletal myoblasts) was determined using a 96-well plate format as previously described. Data were analyzed with the graphic program Softmax Pro (Molecular Devices, Sunnyvale, CA, USA), which calculated IC50 values by linear regression from the sigmoidal dose inhibition curves.

| Structure (SMILES) | SI (T.b.r.) |
| --- | --- |
| O=C(Cn1cnc([N+](=O)[O-])n1)Nc1cc(-c2ccc(F)cc2)on1 [Compound 13, N-(5-(4-fluorophenyl)isoxazol-3-yl)-2-(3-nitro-1H-1,2,4-triazol-1-yl)acetamide] | 25.1 |

Same assay, conditions: T. b. rhodesiense

| Structure (SMILES) | anti-HAT activity class (TDR criteria) |
| --- | --- |
| O=C(Cn1cnc([N+](=O)[O-])n1)Nc1cc(-c2ccc(F)cc2)on1 [Compound 13, N-(5-(4-fluorophenyl)isoxazol-3-yl)-2-(3-nitro-1H-1,2,4-triazol-1-yl)acetamide] | inactive |

Same assay, conditions: Trypanosoma brucei; T.b. rhodesiense STIB 900 trypomastigotes; means of 2 to 3 measurements, SD < 5%; read-out: T.b.r. IC50

| Structure (SMILES) | IC50 |
| --- | --- |
| O=C(Cn1cnc([N+](=O)[O-])n1)Nc1cc(-c2ccc(F)cc2)on1 [Compound 13, N-(5-(4-fluorophenyl)isoxazol-3-yl)-2-(3-nitro-1H-1,2,4-triazol-1-yl)acetamide] | 8 µM |

System: not listed separately
Test: Cytotoxicity in the host L6 cells
Format: cell-based, rat
Conditions: rat, L6 cells (rat skeletal myoblasts); cytotoxicity in host L6 cells; read-out: Cyt. L6 IC50
Method: as §1, §2

| Structure (SMILES) | IC50 |
| --- | --- |
| O=C(Cn1cnc([N+](=O)[O-])n1)Nc1cc(-c2ccc(F)cc2)on1 [Compound 13, N-(5-(4-fluorophenyl)isoxazol-3-yl)-2-(3-nitro-1H-1,2,4-triazol-1-yl)acetamide] | 201 µM |

System: L6 cells (rat skeletal myoblasts)
Test: Cytotoxicity in the host L6 cells
Format: cell-based
Conditions: 9 vs 10, 9a vs 10a
Method: as §1, §2

| Structure (SMILES) | fold less toxic towards L6 cells relative to unsubstituted compounds 10 and 10a |
| --- | --- |
| N#Cc1ccc(-c2ccc(NC(=O)Cn3cnc([N+](=O)[O-])n3)cc2)cc1 [Compound 9a] | > 3.5 fold |

System: T. cruzi, strain Tulahuen C4 amastigotes
Test: In vitro activity against T. cruzi
Format: cell-based
Conditions: IC50 in L6 cells/IC50 in T. cruzi

| Structure (SMILES) | SI (T. c.) |
| --- | --- |
| O=C(Cn1cnc([N+](=O)[O-])n1)Nc1cc(-c2ccc(F)cc2)on1 [Compound 13, N-(5-(4-fluorophenyl)isoxazol-3-yl)-2-(3-nitro-1H-1,2,4-triazol-1-yl)acetamide] | 590 |

Same assay, conditions: Trypanosoma cruzi; T. cruzi Tulahuen C4 amastigotes; means of 2 to 3 measurements, SD < 5%; read-out: T. c. IC50

| Structure (SMILES) | IC50 |
| --- | --- |
| O=C(Cn1cnc([N+](=O)[O-])n1)Nc1cc(-c2ccc(F)cc2)on1 [Compound 13, N-(5-(4-fluorophenyl)isoxazol-3-yl)-2-(3-nitro-1H-1,2,4-triazol-1-yl)acetamide] | 0.34 µM |

Same assay, conditions: fold antichagasic potency relative to Bnz (T. cruzi IC50 ratio)

| Structure (SMILES) | Bnz/comp |
| --- | --- |
| O=C(Cn1cnc([N+](=O)[O-])n1)Nc1cc(-c2ccc(F)cc2)on1 [Compound 13, N-(5-(4-fluorophenyl)isoxazol-3-yl)-2-(3-nitro-1H-1,2,4-triazol-1-yl)acetamide] | 6.5 |

System: purified his-tagged recombinant TbNTR
Test: Enzymatic activity with type I TbNTR
Format: biochemical, T. brucei
Conditions: substrate 100 μM, NADH 100 μM
Method: Enzyme specific activity was measured as oxidized NADH (nmol) per min per mg of protein. […] As we have reported before with other classes of 3-nitrotriazole-based antitrypanosomal compounds, no correlation between anti-HAT activity and TbNTR specific activity was observed, [13], [15], [16], [17], [18].
Recombinant TbNTR was prepared and assayed as previously described, [39]. The specific activity of purified his-tagged TbNTR was assessed spectrophotometrically at 340 nm using various nitrotriazole substrates (100 μM) and NADH (100 μM) and expressed as nmol NADH oxidized min^−1 mg^−1 of enzyme.

| Structure (SMILES) | TbNTR specific enzyme activity, fold greater than benznidazole |
| --- | --- |
| O=C(Cn1cnc([N+](=O)[O-])n1)Nc1cc(-c2ccc(F)cc2)on1 [Compound 13, N-(5-(4-fluorophenyl)isoxazol-3-yl)-2-(3-nitro-1H-1,2,4-triazol-1-yl)acetamide] | ≤ 4 fold |
